Data from paper PMC7609463 (Frontiers in Pharmacology, 2020).
“Also recorded” adds a separate entry of the source. Where two headings read alike, the source gives them in different places.

What was measured:
viral proteinase NS2B/3 = target: viral proteinase NS2B/3; set-up: method as in Constant et al., 2018; settings: ref Constant et al., 2018; read-out: IC50 of enzymatic activity of the viral proteinase; cited from earlier work
dengue virus = tested on: dengue virus; set-up: method as in Constant et al., 2018; settings: ref Constant et al., 2018; read-out: EC50 of inhibiting viral growth; cited from earlier work
ZIKVpro = settings: 2017, read-out: IC50 against ZIKVpro, cited from earlier work
[1] = target: T1, ZIKV NS2B-NS3 protease (ZIKVpro) (Zika virus, UniProt A0A024B7W1); assay: fluorescence-based ZIKVpro protease inhibition screening assay (Bz-nKKR-AMC substrate); format: biochemical; settings: for IC50: 150 nM ZIKVpro, 1 h preincubation at 37 °C, 50 μM Bz-nKKR-AMC; for inhibition at 20 µM: read-out: Inhibition Activity% (primary high-throughput screening)
T1 construct: The cDNA coding for residues 45–96 of ZIKV NS2B; the N terminus of NS3 (residues 1–177); poly-histidine tag (C); made in house; host or cells: E. coli BL21(DE3), pET28a (NcoI/XhoI)
T1 sequence (A0A024B7W1 1417-1468): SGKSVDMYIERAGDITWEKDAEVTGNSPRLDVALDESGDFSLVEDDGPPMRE
T1 sequence (A0A024B7W1 1503-1679): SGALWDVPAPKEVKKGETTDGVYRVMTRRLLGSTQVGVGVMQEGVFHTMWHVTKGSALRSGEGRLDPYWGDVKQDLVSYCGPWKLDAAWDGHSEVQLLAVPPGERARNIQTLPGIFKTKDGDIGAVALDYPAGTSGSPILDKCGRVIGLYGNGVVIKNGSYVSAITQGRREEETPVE
Procedure: For initial screening, each compound was dissolved in dimethyl sulfoxide (DMSO) to obtain 20 mM stock solution. […] The reaction was started by addition of Bz-nKKR-AMC substrate at 50 µM and fluorescence readings were measured at 30 s intervals over 10 min using Enspire (Perkin Elmer, USA) at excitation wavelength(λex) at 360 nm and emission wavelength(λem) at 460 nm. Assays were carried out as triplicates at 37 °C.
The protease activity of the DMSO control was set as 100%. The protease activities with compounds were set as percentage of the DMSO control. Data was fitted using the log(inhibitor) vs. response - variable slope (four parameters) model within the graphpad prism 7.0 software.
Inhibition activity=100-[S–S0/C−C0]×100%
S: the RFUs of the test sample (enzyme, inhibitor, buffer, and substrate) after 10 min of reaction
S0: the RFUs of the tested samples at time zero.
C: the RFUs of the control (enzyme, buffer, and substrate) after 10 min of reaction
C0: the RFUs of the control at time zero

[2] = target: T2, ZIKV NS2B-NS3 protease (ZIKVpro, gZiPro) (Zika virus, UniProt A0A024B7W1); assay: Octet bio-layer interferometry binding assay with biotinylated ZIKVpro (gZiPro); settings: for binding to ZIKVpro in Octet assay: compound 50 μM; for Response (Octet binding assay): compound 50 µM, biotinylated ZIKVpro, binding profile as nm shift
T2 construct: The cDNA coding for residues 45–96 of ZIKV NS2B; the N terminus of NS3 (residues 1–177); poly-histidine tag (C); made in house; host or cells: E. coli BL21(DE3), pET28a (NcoI/XhoI)
T2 sequence (A0A024B7W1 1417-1468): as the sequence (A0A024B7W1 1417-1468) above
T2 sequence (A0A024B7W1 1503-1679): as the sequence (A0A024B7W1 1503-1679) above
Excerpt: Intermolecular interactions between gZiPro and selected compounds were detected by using BLI technology on the ForteBio Octet Red system (Pall FortéBio, Inc, Menlo Park, USA). The biotinylated protein gZipro was immobilized onto super streptavidin biosensors (Pall FortéBio Inc.), and then blocked with biocytin (Sigma). […] Sensorgrams were double-referenced, corrected for solvent effects, and then fit using OctetRed user software (Pall FortéBio Inc.). The binding profile of each sample was summarized as an “nm shift” (the wavelength or spectral shift in nanometers), which represented the difference between the start and end of the kinetic cycle. Steady-state and kinetic responses were fit to a simple binding model to obtain values for association (Kon) and dissociation (Koff) rate constants and the equilibrium dissociation constant (Kd). The Langmuir’s 1:1 binding model was applied to fit the interferometry data.

ZIKV [3] = assay: qRT-PCR of viral RNA in ZIKV-infected Vero E6 cells; format: cell-based, Zika virus; settings: dose-dependent
Procedure: To determine the viral RNA number by qRT-PCR, total intracellular RNAs were extracted from the infected cells (control and treated) by treatment with TRIzol reagent (Invitrogen, USA) according to the manufacturer’s protocol. The cDNA was synthesized using Primescript RT Master Kit (Takara, Japan). Level of viral RNA was determined by performing qRT-PCR analysis using SYBR premix Ex Taq II kit (Takara) according to the instructions. The primer sequences used for the Zika virus genes are 5’-[…]-3’ (forward) and 5’-[…]-3’ (reverse). For quantification, the 2^−ΔΔCt method was used to calculate the relative RNA levels against GAPDH.

Vero E6 cells = assay: cytotoxicity in Vero E6 cells (CCK-8); format: cell-based, African green monkey; settings: 0.3125~40 μM
[4] = tested on: ZIKV polyprotein precursor cleavage by ZIKVpro; assay: western blot of viral polyprotein precursor processing in ZIKV-infected Vero E6 cells; format: cell-based, Zika virus; settings: especially at 6.25 µM
Procedure: (§1) Vero E6 cells were seeded at a density of 2×10^5 cells per well in 6-well plate. After overnight incubation, 2 µl DMSO (Sigma-Aldrich) or 2 µl chemical compounds were added to each well at the designated concentration. Then cells were infected with ZIKV at MOI of 0.05. Ribavirin and DMSO were used as positive and negative control, respectively. After a further incubation for 72 h at 37°C, cells were lysed with 100 μl of lysis buffer (50mM Tris, 150mM NaCl, 1% NP-40, 0.5% sodium deoxycholate, pH 7.4). Cell lysate was subjected to denaturing gel electrophoresis with 10% Bis-Tris Gel. The proteins were transferred onto PVDF membranes (Millipore, USA) and immunoblotted with indicated antibodies. The following antibodies were used for the detection of proteins: Anti-NS2B antibody (GTX133308, 1:1,000, GeneTex), Anti-NS3 antibody(GTX133320, 1:1,000, GeneTex), Anti-NS4A antibody (GTX133704, 1:1,000, GeneTex), Anti-prM antibody, Anti-β actin antibody (mAbcam 8224, 1:5000, Abcam) was used as a loading control. […]
(§2) Quantification of signals on Western blots was done using the Image pro 10 (Media cybernetics, USA) Imaging and Processing Analysis Software with signaling intensity normalized to loading control. […] Membranes were imaged and quantified in 800 nm channelsin the Odyssey Infrared Imaging System using Odyssey V3.0 software (LI-COR, Lincoln, NE).

ZIKV [5] = assay: western blot of viral protein in ZIKV-infected U-87 MG cells; format: cell-based, Zika virus; settings: dose-dependent
ZIKV [6] = assay: western blot of ZIKV NS3 expression in infected Vero E6 cells; format: cell-based, Zika virus; settings: dose-dependent
Procedure: as §1, §2

ZIKV [7] = assay: protection of Vero E6 cell viability against ZIKV-induced cytopathic effect (CCK-8); format: cell-based, Zika virus; settings: Vero E6 cells
Procedure: Cell viability was performed by Cell Counting Kit-8 (CCK-8) (Beyotime, China). Typically, 8×10^4 cells/ml Vero E6 cells were seeded in the wells of 96-well plate at 100 μl/well and grown for 24 h. The compound 1 μl was added to the cells, after which cells were infected with ZIKV at MOI of 0.05. Ribavirin and DMSO were used as positive and negative control, respectively. […] The absorbance at 450 nm was subsequently measured using EnSpire 2300 Multilable Reader (PerkinElmer). The inhibition rate of the tested compounds was calculated with the following equation:
Inhibition rate%=100-[ODtested compound−ODmock−infected cells/ODinfected cells−ODmock−infected cells]×100%

ZIKV [8] = assay: time-of-drug-addition assay (qRT-PCR, Vero E6); format: cell-based, Zika virus; settings: ZP10 25 μM or antibody 0.1 μg/ml, Vero E6, 24 hpi
Procedure: For the pre-treatment group, Vero E6 cells were seeded 12-well plates (2.5×10^5 cells/well). […] Next, Vero E6 cells were washed with PBS once before the addition of mixture. The 600 μl mixture was added into cells for 1 h at 4°C. […] Infected cells were collected at 24 hpi. The cell lysate was collected for viral RNA copies measurement using qRT-PCR. DMSO was included as negative control. The experiments were performed in triplicate and repeated twice for confirmation.

[9] = tested on: CCCC[C@H](NC(=O)c1ccccc1)C(=O)N[C@@H](CCCCN)C(=O)N[C@@H](CCCCN)C(=O)N[C@@H](CCCNC(=N)N)C(=O)Nc1ccc2c(C)cc(=O)oc2c1; assay: purified protein, by the assay type; settings: other: substrate 5 to 320 µM, 150 nM protease, 37 °C, pH 7.5
Procedure: Proteolytic activity of NS2B-NS3 protease was measured using benzoyl-norleucine-lysine-lysine-arginine 7-amino-4-methylcoumarine (Bz-nKKR-AMC). Bz-nKKR-AMC substrate with starting concentration of 300 μM was serially diluted two times in reaction buffer (50 mM Tris-HCl, pH 7.5, 150 mM NaCl) and added to 96-well black plate (Costar, USA) with 150 nM protein diluted in the same buffer. For kinetics measurements, fluorescence readings were measured at 30 s interval for 5 min using Enspire (Perkin Elmer) at excitation wavelength (λex) at 360 nm and emission wavelength (λem) at 460 nm. Assays were carried out as triplicates at 37 °C. Michaelis-Menten constant (Km) was calculated by graphpad prism5.0.

O=C1c2c(O)ccc([N+](=O)[O-])c2C(=O)c2c([N+](=O)[O-])ccc(O)c21 [ARDP006]
IC50 (viral proteinase NS2B/3): 432 µM
EC50 (dengue virus): 4.2 µM

O=c1cc(-c2ccc(O)cc2)oc2cc(O)cc(O)c12 [Apigenin]
IC50 (ZIKVpro; ref Roy et al.): 56.3 µM

O=c1c(O)c(-c2cc(O)c(O)c(O)c2)oc2cc(O)cc(O)c12 [Myricetin, myricetin]
IC50 [1]: 48.7 µM
IC50 (ZIKVpro; ref Lim et al.): 22 µM
IC50 (ZIKVpro; ref Roy et al.): 1.3 µM

O=C(OC[C@H]1O[C@@H](OC(=O)c2cc(O)c(O)c(OC(=O)c3cc(O)c(O)c(O)c3)c2)[C@H](OC(=O)c2cc(O)c(O)c(OC(=O)c3cc(O)c(O)c(O)c3)c2)[C@@H](OC(=O)c2cc(O)c(O)c(OC(=O)c3cc(O)c(O)c(O)c3)c2)[C@@H]1OC(=O)c1cc(O)c(O)c(OC(=O)c2cc(O)c(O)c(O)c2)c1)c1cc(O)c(O)c(OC(=O)c2cc(O)c(O)c(O)c2)c1 [ZP3, tannic acid]
binding to ZIKVpro in Octet assay [2]: direct binding
Response (Octet binding assay) [2]: 0.1091

Cc1cc2c(C(C)C)c(O)c(O)c(C=O)c2c(O)c1-c1c(C)cc2c(C(C)C)c(O)c(O)c(C=O)c2c1O [ZP4]
Response (Octet binding assay) [2]: -0.046
inhibition at 20 µM [1]: 59.7%

CCCCCCCCCCCCCc1cccc(O)c1C(=O)O [ZP9]
Response (Octet binding assay) [2]: -0.0005
IC50 [1]: 1.42 µM
inhibition at 20 µM [1]: 82.2%

O=C(OC1Cc2c(O)cc(O)cc2OC1c1cc(O)c(=O)c2c(O)c(O)cc(C3Oc4cc(O)cc(O)c4CC3OC(=O)c3cc(O)c(O)c(O)c3)c2c1)c1cc(O)c(O)c(O)c1 (stereo not shown) [ZP10, theaflavin-3,3’-digallate]
viral RNA copy numbers (ZIKV [3]): markedly reduced
cytotoxicity (cell viability, CCK-8) (Vero E6 cells): minor cytotoxicity up to 40 μM; also recorded: low cytotoxicity
cleavage processing of polyprotein precursor (PP) [4]: impaired cleavage processing of PP
viral protein expression (NS3 and envelope) (ZIKV [5]): considerably reduces
NS3 protein expression (ZIKV [6]): markedly reduced
ZIKV-induced CPE (cell morphology) (ZIKV [7]; 72 hpi, ZP10 6.25 µM to 25.0 µM): attenuated to a large extent
EC50 (ZIKV [7]; Zika virus, Vero C1008, MOI 0.05, CCK-8 read-out, read-out: EC50 of inhibition of ZIKV replication (CPE protection)): 7.65 µM
effect on ZIKV entry / replication when added before or after virus adsorption (0–1 hpi) (ZIKV [8]): no effect of ZP10 on ZIKV entry

ZIKV NS2B-NS3 protease (ZIKVpro) (Zika virus ZIKV/H. sapiens/FrenchPolynesia/10087PF/2013)
Km [9]: 30.51 µM

merbromin [ZP1]
binding to ZIKVpro in Octet assay [2]: direct binding
Response (Octet binding assay) [2]: 1.0863
IC50 [1]: 9.18 µM
